Bridge positions count the residues as written; N and C are the ends. Square brackets hold non-standard residues; d marks the D form. Peptide text beside a SMILES is read from it. I, II: the chains in the order shown. Phe(3,4-Cl2) = N[C@@H](Cc1ccc(Cl)c(Cl)c1)C(=O)O; Phe(4-CF3) = N[C@@H](Cc1ccc(C(F)(F)F)cc1)C(=O)O; Phe(2,4-Cl2) = N[C@@H](Cc1ccc(Cl)cc1Cl)C(=O)O; Phe(3-Cl) = N[C@@H](Cc1cccc(Cl)c1)C(=O)O; Phe(4-Cl) = N[C@@H](Cc1ccc(Cl)cc1)C(=O)O; Phe(4-Me) = Cc1ccc(C[C@H](N)C(=O)O)cc1
Tests used:
Frizzled-7 [1] = target: T1, Frizzled-7 (Homo sapiens, UniProt O75084); assay: biochemical; format: cell-based, CHO; details: read-out: Kd
Frizzled-7 [2] = target: T1, Frizzled-7; details: CHO
Description: Binding affinity to recombinant human Frizzled-7 (Gln33 to Leu185 residues)/human IgG1 chimeric protein expressed in CHO cells assessed as association rate constant by SPR assay

Frizzled-7 [3] = target: T1, Frizzled-7; format: cell-based; details: cho

Row | SMILES | Kd (Frizzled-7 [1]) | Ka (Frizzled-7 [2]) | Kd (Frizzled-7 [3])
1 | CSCC[C@H](NC(=O)[C@@H](NC(=O)[C@H](Cc1cnc[nH]1)NC(=O)[C@H](CSSC[C@H](NC(=O)[C@H](Cc1c[nH]c2ccccc12)NC(=O)[C@H](Cc1ccccc1)NC(=O)[C@H](CCC(=O)O)NC(=O)[C@H](CC(C)C)NC(=O)[C@H](CC(=O)O)NC(=O)[C@H](CC(=O)O)NC(=O)[C@H](CO)NC(C)=O)C(=O)N[C@@H](Cc1cnc[nH]1)C(=O)N[C@H](C(=O)N[C@@H](CCSC)C(=O)N[C@@H](Cc1ccc(Cl)cc1Cl)C(N)=O)C(C)C)NC(=O)[C@H](Cc1c[nH]c2ccccc12)NC(=O)[C@H](Cc1ccccc1)NC(=O)[C@H](CCC(=O)O)NC(=O)[C@H](CC(C)C)NC(=O)[C@H](CC(=O)O)NC(=O)[C@H](CC(=O)O)NC(=O)[C@H](CO)NC(C)=O)C(C)C)C(=O)N[C@@H](Cc1ccc(Cl)cc1Cl)C(N)=O (I: Ac-SDDLEFWCHVM[Phe(2,4-Cl2)]-NH2 / II: Ac-SDDLEFWCHVM[Phe(2,4-Cl2)]-NH2; disulfide I:8-II:8) | 22.5 nM | 1.29 ×10⁵ /M/s | 2.89 ×10⁻³ /s
2 | CSCC[C@H](NC(=O)[C@@H](NC(=O)[C@H](Cc1cnc[nH]1)NC(=O)[C@H](CSSC[C@H](NC(=O)[C@H](Cc1c[nH]c2ccccc12)NC(=O)[C@H](Cc1ccccc1)NC(=O)[C@H](CCC(=O)O)NC(=O)[C@H](CC(C)C)NC(=O)[C@H](CC(=O)O)NC(=O)[C@H](CC(=O)O)NC(=O)[C@H](CO)NC(C)=O)C(=O)N[C@@H](Cc1cnc[nH]1)C(=O)N[C@H](C(=O)N[C@@H](CCSC)C(=O)N[C@@H](Cc1ccc(Cl)c(Cl)c1)C(N)=O)C(C)C)NC(=O)[C@H](Cc1c[nH]c2ccccc12)NC(=O)[C@H](Cc1ccccc1)NC(=O)[C@H](CCC(=O)O)NC(=O)[C@H](CC(C)C)NC(=O)[C@H](CC(=O)O)NC(=O)[C@H](CC(=O)O)NC(=O)[C@H](CO)NC(C)=O)C(C)C)C(=O)N[C@@H](Cc1ccc(Cl)c(Cl)c1)C(N)=O (I: Ac-SDDLEFWCHVM[Phe(3,4-Cl2)]-NH2 / II: Ac-SDDLEFWCHVM[Phe(3,4-Cl2)]-NH2; disulfide I:8-II:8) | 6.4 nM | 1.4 ×10⁵ /M/s | 0.9 ×10⁻³ /s
3 | CSCC[C@H](NC(=O)[C@@H](NC(=O)[C@H](Cc1cnc[nH]1)NC(=O)[C@H](CSSC[C@H](NC(=O)[C@H](Cc1c[nH]c2ccccc12)NC(=O)[C@H](Cc1ccccc1)NC(=O)[C@H](CCC(=O)O)NC(=O)[C@H](CC(C)C)NC(=O)[C@H](CC(=O)O)NC(=O)[C@H](CC(=O)O)NC(=O)[C@H](CO)NC(C)=O)C(=O)N[C@@H](Cc1cnc[nH]1)C(=O)N[C@H](C(=O)N[C@@H](CCSC)C(=O)N[C@@H](Cc1ccc(C(F)(F)F)cc1)C(N)=O)C(C)C)NC(=O)[C@H](Cc1c[nH]c2ccccc12)NC(=O)[C@H](Cc1ccccc1)NC(=O)[C@H](CCC(=O)O)NC(=O)[C@H](CC(C)C)NC(=O)[C@H](CC(=O)O)NC(=O)[C@H](CC(=O)O)NC(=O)[C@H](CO)NC(C)=O)C(C)C)C(=O)N[C@@H](Cc1ccc(C(F)(F)F)cc1)C(N)=O (I: Ac-SDDLEFWCHVM[Phe(4-CF3)]-NH2 / II: Ac-SDDLEFWCHVM[Phe(4-CF3)]-NH2; disulfide I:8-II:8) | 13.1 nM | 1.45 ×10⁵ /M/s | 1.9 ×10⁻³ /s
4 | CSCC[C@H](NC(=O)[C@@H](NC(=O)[C@H](Cc1cnc[nH]1)NC(=O)[C@H](CSSC[C@H](NC(=O)[C@H](Cc1c[nH]c2ccccc12)NC(=O)[C@H](Cc1ccccc1)NC(=O)[C@H](CCC(=O)O)NC(=O)[C@H](CC(C)C)NC(=O)[C@H](CC(=O)O)NC(=O)[C@H](CC(=O)O)NC(=O)[C@H](CO)NC(C)=O)C(=O)N[C@@H](Cc1cnc[nH]1)C(=O)N[C@H](C(=O)N[C@@H](CCSC)C(=O)N[C@@H](Cc1ccc(Cl)cc1)C(N)=O)C(C)C)NC(=O)[C@H](Cc1c[nH]c2ccccc12)NC(=O)[C@H](Cc1ccccc1)NC(=O)[C@H](CCC(=O)O)NC(=O)[C@H](CC(C)C)NC(=O)[C@H](CC(=O)O)NC(=O)[C@H](CC(=O)O)NC(=O)[C@H](CO)NC(C)=O)C(C)C)C(=O)N[C@@H](Cc1ccc(Cl)cc1)C(N)=O (I: Ac-SDDLEFWCHVM[Phe(4-Cl)]-NH2 / II: Ac-SDDLEFWCHVM[Phe(4-Cl)]-NH2; disulfide I:8-II:8) | 0.88 nM | 9.3 ×10⁵ /M/s | 0.82 ×10⁻³ /s
5 | CSCC[C@H](NC(=O)[C@@H](NC(=O)[C@H](Cc1cnc[nH]1)NC(=O)[C@H](CSSC[C@H](NC(=O)[C@H](Cc1c[nH]c2ccccc12)NC(=O)[C@H](Cc1ccccc1)NC(=O)[C@H](CCC(=O)O)NC(=O)[C@H](CC(C)C)NC(=O)[C@H](CC(=O)O)NC(=O)[C@H](CC(=O)O)NC(=O)[C@H](CO)NC(C)=O)C(=O)N[C@@H](Cc1cnc[nH]1)C(=O)N[C@H](C(=O)N[C@@H](CCSC)C(=O)N[C@@H](Cc1ccc(C)cc1)C(N)=O)C(C)C)NC(=O)[C@H](Cc1c[nH]c2ccccc12)NC(=O)[C@H](Cc1ccccc1)NC(=O)[C@H](CCC(=O)O)NC(=O)[C@H](CC(C)C)NC(=O)[C@H](CC(=O)O)NC(=O)[C@H](CC(=O)O)NC(=O)[C@H](CO)NC(C)=O)C(C)C)C(=O)N[C@@H](Cc1ccc(C)cc1)C(N)=O (I: Ac-SDDLEFWCHVM[Phe(4-Me)]-NH2 / II: Ac-SDDLEFWCHVM[Phe(4-Me)]-NH2; disulfide I:8-II:8) | 0.97 nM | 10.2 ×10⁵ /M/s | 0.98 ×10⁻³ /s
6 | CSCC[C@H](NC(=O)[C@@H](NC(=O)[C@H](Cc1cnc[nH]1)NC(=O)[C@H](CSSC[C@H](NC(=O)[C@H](Cc1c[nH]c2ccccc12)NC(=O)[C@H](CC(C)C)NC(=O)[C@H](CCC(=O)O)NC(=O)[C@H](CC(C)C)NC(=O)[C@H](CC(=O)O)NC(=O)[C@H](CC(=O)O)NC(=O)[C@H](CO)NC(C)=O)C(=O)N[C@@H](Cc1cnc[nH]1)C(=O)N[C@H](C(=O)N[C@@H](CCSC)C(=O)N[C@@H](Cc1ccc(O)cc1)C(N)=O)C(C)C)NC(=O)[C@H](Cc1c[nH]c2ccccc12)NC(=O)[C@H](CC(C)C)NC(=O)[C@H](CCC(=O)O)NC(=O)[C@H](CC(C)C)NC(=O)[C@H](CC(=O)O)NC(=O)[C@H](CC(=O)O)NC(=O)[C@H](CO)NC(C)=O)C(C)C)C(=O)N[C@@H](Cc1ccc(O)cc1)C(N)=O (I: Ac-SDDLELWCHVMY-NH2 / II: Ac-SDDLELWCHVMY-NH2; disulfide I:8-II:8) | 0.079 nM | 76.5 ×10⁵ /M/s | 0.6 ×10⁻³ /s
7 | CC[C@H](C)[C@H](NC(=O)[C@H](Cc1cnc[nH]1)NC(=O)[C@H](CSSC[C@H](NC(=O)[C@H](Cc1c[nH]c2ccccc12)NC(=O)[C@H](Cc1cccc(Cl)c1)NC(=O)[C@H](CCC(=O)O)NC(=O)[C@H](CC(C)C)NC(=O)[C@H](CC(=O)O)NC(=O)[C@H](CC(=O)O)NC(=O)[C@H](CO)NC(C)=O)C(=O)N[C@@H](Cc1cnc[nH]1)C(=O)N[C@H](C(=O)N[C@@H](CCSC)C(=O)N[C@@H](Cc1ccc(O)cc1)C(N)=O)[C@@H](C)CC)NC(=O)[C@H](Cc1c[nH]c2ccccc12)NC(=O)[C@H](Cc1cccc(Cl)c1)NC(=O)[C@H](CCC(=O)O)NC(=O)[C@H](CC(C)C)NC(=O)[C@H](CC(=O)O)NC(=O)[C@H](CC(=O)O)NC(=O)[C@H](CO)NC(C)=O)C(=O)N[C@@H](CCSC)C(=O)N[C@@H](Cc1ccc(O)cc1)C(N)=O (I: Ac-SDDLE[Phe(3-Cl)]WCHIMY-NH2 / II: Ac-SDDLE[Phe(3-Cl)]WCHIMY-NH2; disulfide I:8-II:8) | 0.083 nM | 68.4 ×10⁵ /M/s | 0.57 ×10⁻³ /s
8 | CSCC[C@H](NC(=O)[C@@H](NC(=O)[C@H](Cc1cnc[nH]1)NC(=O)[C@H](CSSC[C@H](NC(=O)[C@H](Cc1c[nH]c2ccccc12)NC(=O)[C@H](Cc1cccc(Cl)c1)NC(=O)[C@H](CCC(=O)O)NC(=O)[C@H](CC(C)C)NC(=O)[C@H](CC(=O)O)NC(=O)[C@H](CC(=O)O)NC(=O)[C@H](CO)NC(C)=O)C(=O)N[C@@H](Cc1cnc[nH]1)C(=O)N[C@H](C(=O)N[C@@H](CCSC)C(=O)N[C@@H](Cc1ccc(O)cc1)C(N)=O)C(C)C)NC(=O)[C@H](Cc1c[nH]c2ccccc12)NC(=O)[C@H](Cc1cccc(Cl)c1)NC(=O)[C@H](CCC(=O)O)NC(=O)[C@H](CC(C)C)NC(=O)[C@H](CC(=O)O)NC(=O)[C@H](CC(=O)O)NC(=O)[C@H](CO)NC(C)=O)C(C)C)C(=O)N[C@@H](Cc1ccc(O)cc1)C(N)=O (I: Ac-SDDLE[Phe(3-Cl)]WCHVMY-NH2 / II: Ac-SDDLE[Phe(3-Cl)]WCHVMY-NH2; disulfide I:8-II:8) | 0.1 nM | 66.3 ×10⁵ /M/s | 0.63 ×10⁻³ /s
9 | CSCC[C@H](NC(=O)[C@@H](NC(=O)[C@H](Cc1cnc[nH]1)NC(=O)[C@H](CSSC[C@H](NC(=O)[C@H](Cc1c[nH]c2ccccc12)NC(=O)[C@H](Cc1ccc(Cl)cc1)NC(=O)[C@H](CCC(=O)O)NC(=O)[C@H](CC(C)C)NC(=O)[C@H](CC(=O)O)NC(=O)[C@H](CC(=O)O)NC(=O)[C@H](CO)NC(C)=O)C(=O)N[C@@H](Cc1cnc[nH]1)C(=O)N[C@H](C(=O)N[C@@H](CCSC)C(=O)N[C@@H](Cc1ccc(O)cc1)C(N)=O)C(C)C)NC(=O)[C@H](Cc1c[nH]c2ccccc12)NC(=O)[C@H](Cc1ccc(Cl)cc1)NC(=O)[C@H](CCC(=O)O)NC(=O)[C@H](CC(C)C)NC(=O)[C@H](CC(=O)O)NC(=O)[C@H](CC(=O)O)NC(=O)[C@H](CO)NC(C)=O)C(C)C)C(=O)N[C@@H](Cc1ccc(O)cc1)C(N)=O (I: Ac-SDDLE[Phe(4-Cl)]WCHVMY-NH2 / II: Ac-SDDLE[Phe(4-Cl)]WCHVMY-NH2; disulfide I:8-II:8) | 1.04 nM | 16.5 ×10⁵ /M/s | 1.71 ×10⁻³ /s
10 | CSCC[C@H](NC(=O)[C@@H](NC(=O)[C@H](Cc1cnc[nH]1)NC(=O)[C@H](CSSC[C@H](NC(=O)[C@H](Cc1c[nH]c2ccccc12)NC(=O)[C@H](Cc1ccccc1)NC(=O)[C@H](CCCCN)NC(=O)[C@H](CC(C)C)NC(=O)[C@H](CC(=O)O)NC(=O)[C@H](CC(=O)O)NC(=O)[C@H](CO)NC(C)=O)C(=O)N[C@@H](Cc1cnc[nH]1)C(=O)N[C@H](C(=O)N[C@@H](CCSC)C(=O)N[C@@H](Cc1ccc(O)cc1)C(N)=O)C(C)C)NC(=O)[C@H](Cc1c[nH]c2ccccc12)NC(=O)[C@H](Cc1ccccc1)NC(=O)[C@H](CCCCN)NC(=O)[C@H](CC(C)C)NC(=O)[C@H](CC(=O)O)NC(=O)[C@H](CC(=O)O)NC(=O)[C@H](CO)NC(C)=O)C(C)C)C(=O)N[C@@H](Cc1ccc(O)cc1)C(N)=O (I: Ac-SDDLKFWCHVMY-NH2 / II: Ac-SDDLKFWCHVMY-NH2; disulfide I:8-II:8) | 0.157 nM | 85.6 ×10⁵ /M/s | 1.33 ×10⁻³ /s
